# Measured values from patent publication EP4711356A1, “TETRAHYDROCARBAZOLE DERIVATIVE, PHARMACEUTICAL COMPOSITION, AND USE THEREOF” (Nain Biotech (Hangzhou) Co., Ltd., priority 2023, dated 2024).
# Tested on: HeLa cells
# Experiment: Cell-based pharmacodynamic assay (CellTiter-Glo proliferation inhibition), HeLa
# Settings: human cervical cancer HeLa cells; 72 hours incubation; CellTiter-Glo luminescence; read-out: IC50 against HeLa cells
# Description: Complete media such as RPMI 1640 (Gibco, A1049101), EMEM (ATCC, 30-2003), DMEM (Gibco, C11995500CP), McCoy's 5A (Gibco, 16600082), and F-12K (ATCC, 30-2004) were prepared by supplementing with varying concentrations of FBS (Biological Industries, 04-002-1A) and 1% Penicillin-Streptomycin (Gibco, 15140122) and was thoroughly mixed. Tumor cell lines including HeLa (ATCC, CCL-2; EMEM + 10% FBS), TOV-21G (Cobioer, CBP60292; 1:1 mixture of MCDB 105 and Medium 199 + 15% FBS), OVCAR-3 (ATCC, HTB-161; RPMI 1640 + 20% FBS + 0.01 mg/ml bovine insulin), SK-OV-3 (ATCC, HTB-77; McCoy's 5A + 10% FBS), A2780 (Cobioer, CBP60283; RPMI 1640 + 10% FBS), OC316 (Cobioer, CBP60620; RPMI 1640 + 10% FBS), HuH-7 (Cobioer, CBP60202; DMEM + 10% FBS), SNU-398 (ATCC, CRL-2233; RPMI 1640 + 10% FBS), NCI-H2286 (ATCC, CRL-5938; RPMI 1640 + 5% FBS), NCI-H82 (ATCC, HTB-175; RPMI 1640 + 10% FBS), A549 (ATCC, CCL-185; F-12K + 10% FBS), SK-MEL-3 (ATCC, HTB-69; McCoy's 5A + 15% FBS), PSN-1 (Cobioer, CBP61215; RPMI 1640 + 10% FBS), LoVo (ATCC, CCL-229; F-12K + 10% FBS), DLD-1 (ATCC, CCL-221; RPMI 1640 + 10% FBS), HCT-15 (ATCC, CCL-225; RPMI 1640 + 10% FBS), A498 (ATCC, HTB-44; EMEM + 10% FBS), LNCaP (ATCC, CRL-1740; RPMI 1640 + 10% FBS), SNU-1 (ATCC, CRL-5971; RPMI 1640 + 10% FBS), SCC-9 (Cobioer, CBP60428; DMEM/F12 (1:1) + 10% FBS + 0.5 mM sodium pyruvate + 400 ng/ml hydrocortisone), SU-DHL-5 (ATCC, CRL-2958; RPMI 1640 + 10% FBS), Toledo (ATCC, CRL-2631; RPMI 1640 + 10% FBS), and SJCRH30 (ATCC, CRL-2061; RPMI 1640 + 10% FBS) were thawed. Cells were passaged approximately twice, and those in good growth condition (typically passages 4-6) were selected for experiments. The medium was aspirated, and the cells were washed once with 0.25% trypsin (Invitrogen, 25200-072). The waste liquid was discarded, and 3 mL of fresh trypsin was added to the culture flask for digestion. When the cells began to detach, 9 mL of complete medium was added to neutralize the trypsin digestion, and the mixture was gently mixed. The cell suspension was transferred to a centrifuge tube using a pipette and centrifuged at 1000 rpm for 5 minutes. The supernatant was discarded, and 5 mL of medium was added to the centrifuge tube to gently resuspend the cells evenly. The cell concentration was adjusted to 1×10^4/mL-3×10^4/mL using a cell counter (Beckman Coulter, Vi-cellTM XR). The cell suspension was added to a 96-well plate (Corning, 3903) at 100 µL/well. The plate was labeled with details such as cell name, seeding density, and date, and then placed in a CO2 incubator (Thermo, Thermo 3111) overnight. Test compounds were prepared as 20 mM stock solutions in DMSO (Sigma, D4540-1L) and added to the corresponding cell wells using an HPD300 automated dispenser according to the designed layout. The plates were incubated in a 37°C, 5% CO2 incubator for 72 hours. CellTiter-Glo Buffer was thawed at room temperature. The lyophilized CellTiter-Glo substrate was equilibrated to room temperature. The CellTiter-Glo Buffer was added to the CellTiter-Glo substrate and thoroughly mixed. The cell plates were removed and equilibrated to room temperature, and 50 µL of the mixed CellTiter-Glo reagent was added to each well. The plates were protected from light and shaken for 10 minutes, followed by incubation for 10 minutes. The plates were placed in an Enspire reader (luminescence measurement time: 0.5 s) to record luminescence results. The inhibition rate was calculated using the following formula: Inhibition rate (%) = (1 - (RLU_compound - RLU_blank) / (RLU_DMSO - RLU_blank)) × 100%. Dose-response curves were plotted using XLFit to calculate IC50 values. A four-parameter model was used: [fit = (A + ((B - A) / (1 + ((C/x) ^ D)))]. The test results for HeLa cells are shown in Table 1. Table 1: IC50 values of some test compounds against human cervical cancer HeLa cells
row,IC50,Compound
1,≤ 200 nM,CCOC(=O)c1cccc2c1c1c(n2C(=O)c2ccccc2O)C(=O)CCC1 [Compound C31]
2,≤ 200 nM,CCOC(=O)c1cccc2c1c1c(n2C(=O)c2cc(C)cc(OCC)n2)C(=O)CCC1 [Compound C32]
3,≤ 200 nM,CCOC(=O)c1cccc2c1c1c(n2C(=O)CN2CCN(C)CC2)C(=O)CCC1 [Compound C34]
4,≤ 200 nM,CCOC(=O)c1cccc2c1c1c(n2C(=O)CC2CCOCC2)C(=O)CCC1 [Compound C35]
5,≤ 200 nM,CCOC(=O)c1cccc2c1c1c(n2C(=O)C2(c3ccc4c(c3)OC(F)(F)O4)CC2)C(=O)CCC1 [Compound C36]
6,≤ 200 nM,CCOC(=O)c1cccc2c1c1c(n2C(=O)C2COC2)C(=O)CCC1 [Compound C38]
7,≤ 200 nM,CCOC(=O)c1cccc2c1c1c(n2C(=O)CCCCCN)C(=O)CCC1 [Compound C42]
8,≤ 200 nM,CCOC(=O)c1cccc2c1c1c(n2C(=O)C#CC2(C)COC2)C(=O)CCC1 [Compound C43]
9,≤ 200 nM,CCOCCOCC(=O)n1c2c(c3c(C(=O)OCC)cccc31)CCCC2=O [Compound C44]
10,≤ 200 nM,CCOC(=O)c1cccc2c1c1c(n2C(=O)C2(C)CCOCC2)C(=O)CCC1 [Compound C45]
11,≤ 200 nM,CCOC(=O)c1cccc2c1c1c(n2C(=O)C2(F)CCOCC2)C(=O)CCC1 [Compound C49]
12,≤ 200 nM,CCOC(=O)c1cccc2c1c1c(n2C(=O)CCCN(C)C)C(=O)CCC1 [Compound C50]
13,≤ 200 nM,CCOC(=O)c1cccc2c1c1c(n2C(=O)CCCCC(F)F)C(=O)CCC1 [Compound C51]
14,≤ 200 nM,CCCCCC(=O)n1c2c(c3c(-c4cnn(C(C)C)c4)cccc31)CCCC2=O [Compound C52]
15,≤ 200 nM,CCOC(=O)c1cccc2c1c1c(n2C(=O)CCCCCO)C(=O)CCC1 [Compound C55]
16,≤ 200 nM,CCOC(=O)c1cccc2c1c1c(n2C(=O)C2CC3(CC(C(=O)O)C3)C2)C(=O)CCC1 (stereo not drawn) [Compound C56]
17,≤ 500 nM,CCOC(=O)c1cccc2c1c1c(n2C(=O)c2c[nH]cc2C(F)(F)F)C(=O)CCC1 [Compound C57]
18,≤ 200 nM,CCOC(=O)c1cccc2c1c1c(n2C(=O)[C@@H](C)OCc2ccccc2)C(=O)CCC1 [Compound C58]

# The next lines start with the compound.
row,Compound,IC50
1,CCOC(=O)c1cccc2c1c1c(n2C(=O)/C=C/C(=O)OC)C(=O)CCC1 [Compound C15],≤ 200 nM
2,CCCCCOC(=O)n1c2c(c3c(C(=O)OCC)cccc31)CCCC2=O [Compound C16],≤ 200 nM
3,CCOC(=O)c1cccc2c1c1c(n2C(=O)C2CCOCC2)C(=O)CCC1 [Compound C17],≤ 200 nM
4,CCOC(=O)c1cccc2c1c1c(n2C(=O)OC2CCN(C)CC2)C(=O)CCC1 [Compound C18],≤ 200 nM
5,CCOC(=O)c1cccc2c1c1c(n2C(=O)c2ccc(F)cc2)C(=O)CCC1 [Compound C19],≤ 200 nM
6,CCOC(=O)c1cccc2c1c1c(n2C(=O)c2ccc(Cl)cc2)C(=O)CCC1 [Compound C20],≤ 200 nM
7,CCOC(=O)c1cccc2c1c1c(n2C(=O)c2ccc(OC)cc2)C(=O)CCC1 [Compound C21],≤ 200 nM
8,C#Cc1cccc(C(=O)n2c3c(c4c(C(=O)OCC)cccc42)CCCC3=O)c1 [Compound C22],≤ 200 nM
9,CCOC(=O)c1cccc2c1c1c(n2C(=O)c2ccc(C)cc2)C(=O)CCC1 [Compound C23],≤ 200 nM
10,CCOC(=O)c1cccc2c1c1c(n2C(=O)C2CCN(C)CC2)C(=O)CCC1 [Compound C24],≤ 200 nM
11,CCOC(=O)c1cccc2c1c1c(n2C(=O)c2ccccc2OC)C(=O)CCC1 [Compound C25],≤ 200 nM
12,CCOC(=O)c1cccc2c1c1c(n2C(=O)c2ncoc2C)C(=O)CCC1 [Compound C26],≤ 200 nM
13,CCOC(=O)c1cccc2c1c1c(n2C(=O)c2ccc(C)cn2)C(=O)CCC1 [Compound C27],≤ 200 nM
14,CCOC(=O)c1cccc2c1c1c(n2C(=O)/C=C/c2ccc(O)c(OC)c2)C(=O)CCC1 [Compound C29],≤ 200 nM
15,CCOC(=O)c1cccc2c1c1c(n2C(=O)C2OC2C)C(=O)CCC1 (stereo not drawn) [Compound C30],≤ 200 nM
